The test system of assay [1] is small cell lung cancer lines. Nature of the assay: 6 day proliferation (cell growth) assay, panel of 38 small cell lung cancer lines. As to conditions: 6 day proliferation assay; for pIC50: 144 h. It counts as cell-based.
Assay [2] concerns NCI-H526 cell line xenograft. As to the kind of experiment: SCLC subcutaneous mouse xenograft model, efficacy and pharmacodynamics. Particulars: 25 mg/kg QD. It counts as in vivo.

One compound from patent US20150238507A1, “BENZODIAZEPINES FOR TREATING SMALL CELL LUNG CANCER” (GlaxoSmithKline LLC, priority 2012, published 2015) can be followed below.

pIC50: −log10 of the molar value. Like-named read-outs stand apart in the source and are kept apart here.

As for `CCNC(=O)C[C@@H]1N=C(c2ccc(Cl)cc2)c2cc(OC)ccc2-n2c(C)nnc21` [2-[(4S)-6-(4-chlorophenyl)-1-methyl-8-(methyloxy)-4H-[1,2,4]triazolo[4,3-a][1,4]benzodiazepin-4-yl]-N-ethylacetamide], the pIC50 in assay [1] (median of 38 small cell lung cancer lines, read-out: gIC50 (median over the panel)) is 5.84; in assay [1] (panel of 38 small cell lung cancer lines, read-out: gIC50 (range over the panel)), 4.53 to 6.96. Moreover, the “number of lines showing gIC50<10000 nM” value in assay [1] (of the 38 small cell lung cancer lines) stood at 33. Besides, the “reduction of tumour growth” value in assay [2] (NCI-H526 subcutaneous mouse xenograft) is on record as 70%. Also, the “p21 protein expression and caspase activation in tumour” value in assay [2] (NCI-H526 xenograft, antibody-based immunochemistry assay) was “induce p21 protein expression and caspase activation”.
